Experimental data reported in patent US20120148682A1.

Assays:
[1] = tested on: Leptosphaeria nodorum (LEPTNO); test: In vitro fungitoxicity (growth inhibition) in copper-minus and copper-plus medium; assay type: cell-based
Method: Trace elements (minus CuSO4), and vitamins described by Coursen and […] were added from concentrated stock solutions and the entire medium was sterilized by filtration. […] […] was grown on potato dextrose agar in 9 cm diameter petri dishes for 7 days. Sterile deionized water (20 mL) was added to a culture plate and spores suspended by scraping the surface gently with a sterile plastic loop. The resulting suspension was filtered through a double layer of sterile cheesecloth. Filtered spore suspension (5 mL) was centrifuged in a bench centrifuge at 2000 rpm for 2 min. […] Microtiter plates were inoculated with 100 μL of this spore suspension and the plates incubated at 25° C. for 72 h before assessing fungal growth by measuring light scattering in a NepheloStar plate reader. Growth inhibition was determined by comparing growth in the presence of test compound with growth in control wells lacking test compound. Results for growth inhibition by test compounds in copper-plus medium (“% Inhn. Plus Copper Observed”) were compared with predicted values (“% Inhn. Plus Copper Predicted”) that were calculated using the formula set forth by S. R. […] Minus Copper Observed”) and the inhibition attributed to copper chloride alone, as determined by comparing growth in copper-minus and copper-plus media without any test compound across experiments. Results illustrate that hydrazones and copper produce a synergistic fungitoxic effect towards […].

[2] = tested on: Phytophthora infestans; assay type: in vivo; details: 50 ppm hydrazone with 50 μM CuCl2.2H2O, applied 24 h before inoculation, tomato plants, 7 days after inoculation
[3] = tested on: Phytophthora capsici; test: In vitro fungitoxicity in copper-minus AS and copper-plus AS medium; assay type: cell-based; details: CuCl2 50 uM, without test compound, across experiments
Method: Plates were inoculated with 7-mm plugs from a 1-week old culture, incubated at 25° C. in the dark for 3 days, and then placed under fluorescent lights for 4 days to induce sporulation. Zoospore release from sporangia was induced by adding 15 mL of sterile deionized water (which had been treated with Chelex 100 resin using 0.5 g resin per liter of water by stirring at room temperature for 1 h) to each plate, and incubating for 10 min at 25° C. followed by 20 min at 4° C. The plates were returned to 25° C. for 10 min and the aqueous suspension of released zoospores was recovered. The zoospore suspension was adjusted to 5×10^4 spores/mL by dilution into Chelex 100-treated water. Microtiter plates were inoculated with 100 μL of spore suspension and incubated at 25° C. for 48 h before assessing fungal growth by measuring light scattering in a NepheloStar plate reader. Growth inhibition was determined by comparing growth in the presence of test compound with growth in control wells lacking test compound. Results for growth inhibition by test compounds in copper-plus AS medium (“% Inhn. Plus Copper Observed”) were compared with predicted values (“% Inhn. Plus Copper Predicted”) that were calculated using the formula set forth by S. R. […]

[4] = tested on: Ustilago maydis; test: In vitro fungitoxicity in copper-minus and copper-plus medium; assay type: cell-based; details: CuCl2 10 μM, without test compound
Method: Test compounds were dissolved in dimethylsulfoxide (DMSO) at 200 μg/mL and 1 μL aliquots were added to two wells of flat-bottomed 96-well microtiter plates. […] Control wells, included for each medium, received 1 uL DMSO and 100 μL of medium. Ustilago maydis was grown in 50 mL potato dextrose broth with shaking at 25° C. for 24 h. A 10 mL aliquot of the culture was centrifuged at 2000 rpm for 2 min, resuspended in 10 mL of sterile Chelex 100-treated water, and centrifuged again. […] Microtiter plate wells containing test compound of DMSO (control) as described above were inoculated with 100 μL of this spore suspension and the plates incubated at 25° C. for 48 h before assessing fungal growth by measuring light scattering in a NepheloStar plate reader. Growth inhibition was determined by comparing growth in the presence of test compound with growth in control wells lacking test compound. […] Plus Copper Observed”) were compared with predicted results (“% Inhn. Plus Copper Predicted”) that were calculated using the formula set forth by S. R. […] Minus Copper Observed”) and the inhibition attributed to copper chloride alone, as determined by comparing growth in copper-minus and copper-plus media without any test compound. Results illustrate that hydrazones and copper produce a synergistic fungitoxic effect towards Ustilago maydis.

[5] = tested on: Septoria tritici isolate USA-184; test: as above; assay type: cell-based; details: CuCl2 1 μM, without test compound
Method: Test compounds were dissolved in dimethylsulfoxide (DMSO) at 10 μg/mL and 1 μL aliquots were added to two wells of flat-bottomed 96-well microtiter plates. […] Control wells, included for each medium, received 1 uL DMSO and 100 μL of medium. Septoria tritici isolate USA-184 was grown on potato dextrose agar at 18° C. under black lights for 3 days. A loopful of spores was transferred from the culture to a 15 mL tube containing 5 mL of sterile Chelex-treated water. The spores were centrifuged at 2000 rpm for 2 min, resuspended in 10 mL water, and centrifuged again. […] Microtiter plate wells containing test compound of DMSO (control) as described above were inoculated with 100 μL of this spore suspension and the plates incubated at 25° C. for 90 h before assessing fungal growth by measuring light scattering in a NepheloStar plate reader. Growth inhibition was determined by comparing growth in the presence of test compound with growth in control wells lacking test compound. […] Plus Copper Observed”) were compared with predicted results (“% Inhn. Plus Copper Predicted”) that were calculated using the formula set forth by S. R. […] Minus Copper Observed”) and the inhibition attributed to copper chloride alone, as determined by comparing growth in copper-minus and copper-plus media without any test compound. […]

[6] = tested on: Staphylococcus aureus, Escherichia coli, Aspergillus niger and A. flavus; details: Proceedings of the National Academy of Sciences, India 1991; cited from earlier work

For `O=C(N/N=C/c1cccc(C(F)(F)F)c1O)c1ccc(C(F)(F)F)cc1O` [Compound 42], the “LEPTNO % Inhn. Plus Copper Observed” value ([1]; 0.05 μg/mL compound, copper-plus medium (CuCl2, 10 μM), 72 h) was 98.4%, the inhibition of growth at 0.05 µg/mL ([1]; Parastagonospora nodorum, 0.05 μg/mL compound, copper-minus medium, 72 h, read-out: LEPTNO % Inhn. Minus Copper Observed) was 8.8% and the “TLB % Control” value [2] was 100.0%. For the same compound, the melting point was 248 to 253 °C.

In the case of `[Cl][Cu][Cl]` [CuCl2, copper chloride], the “LEPTNO % Inhn. copper chloride alone” value ([1]; CuCl2 10 μM, without test compound, across experiments) is reported as 7.1 ± 6.0%, the “% Inhn copper chloride alone” value [3] is reported as 4.5 ± 7.9% and the “% Inhn. copper chloride alone” value [4] is reported as 11.9%. The “% Inhibition copper chloride alone” value [5] was 0% and the “% Inhibition copper chloride alone” value ([5]; listed as copper chloride) was “no effect on growth”.

For `O=C(NN=Cc1ccccc1O)c1ccccc1O` [o-hydroxybenzaldehyde-N-salicyloylhydrazone], the antimicrobial activity [6] is given as “Antimicrobial activity has been reported”.
